Laboratory results published in patent publication US20260015350A1, “AZAQUINAZOLINE PAN-KRAS INHIBITORS” (Mirati Therapeutics, Inc., priority 2022, published 2026).

Experiments:
KRas^WT = biological target: T1, KRas^WT (Homo sapiens, UniProt P01116); assay: KRas binding assay (TR-FRET tracer displacement), KRas WT; conditions: TR-FRET tracer displacement, KRas WT
T1 construct: Biotinylated KRas (corresponding to amino acids 1-169, produced at Accelegan Inc.); biotin (biotinylated); purchased Accelegan Inc

KRas^G12C = biological target: T2, KRas^G12C (Homo sapiens, UniProt P01116, G12C); assay: KRas binding assay (TR-FRET tracer displacement), KRas G12C; conditions: TR-FRET tracer displacement, KRas G12C
T2 construct: Biotinylated KRas (corresponding to amino acids 1-169, produced at Accelegan Inc.); biotin (biotinylated); purchased Accelegan Inc

KRas^G12D = biological target: T3, KRas^G12D (Homo sapiens, UniProt P01116, G12D); assay: KRas binding assay (TR-FRET tracer displacement), KRas G12D
T3 construct: Biotinylated KRas (corresponding to amino acids 1-169, produced at Accelegan Inc.); biotin (biotinylated); purchased Accelegan Inc

KRas^G12S = biological target: T4, KRas^G12S (Homo sapiens, UniProt P01116, G12S); assay: KRas binding assay (TR-FRET tracer displacement), KRas G12S; conditions: TR-FRET tracer displacement, KRas G12S
T4 construct: Biotinylated KRas (corresponding to amino acids 1-169, produced at Accelegan Inc.); biotin (biotinylated); purchased Accelegan Inc

KRas^G12V = biological target: T5, KRas^G12V (Homo sapiens, UniProt P01116, G12V); assay: KRas binding assay (TR-FRET tracer displacement), KRas G12V
T5 construct: Biotinylated KRas (corresponding to amino acids 1-169, produced at Accelegan Inc.); biotin (biotinylated); purchased Accelegan Inc

[1] = tested on: KRas-mediated phosphorylation of ERK in MKN1 cells; assay: Inhibition of KRas-mediated phosphorylation of ERK (Cisbio HTRF pERK), MKN1 cells; format: cell-based; conditions: Homo sapiens, MKN-1
Summary of the method: (§1)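 Overnight culture at 37° C./5% CO2 in RPMI containing 10% FBS, seeded 6,000 cells per well, preceded the assay. A covered 4-hour incubation at room temperature followed, then HTRF signal for phosphorylated ERK was measured.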

[2] = tested on: KRas-mediated phosphorylation of ERK in AsPC-1 cells; assay: Inhibition of KRas-mediated phosphorylation of ERK (Cisbio HTRF pERK), AsPC-1 cells; format: cell-based; conditions: Homo sapiens, ASPC1, AsPC-1 cells; HTRF pERK
Summary of the method: (§2)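 Using 6,000 cells per well, compounds are applied for 3 hrs and cells then lysed at 4° C with shaking for 40 mins. Phospho-ERK is measured by HTRF after 2 hrs of lysate incubation with the d2/Cryptate antibody mixture.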

[3] = tested on: KRas-mediated phosphorylation of ERK in H727 cells; assay: Inhibition of KRas-mediated phosphorylation of ERK (Cisbio HTRF pERK), H727 cells; format: cell-based; conditions: Homo sapiens, NCI-H727, H727 cells; HTRF pERK
Summary of the method: as §2

[4] = tested on: KRas-mediated phosphorylation of ERK in A549 cells; assay: Inhibition of KRas-mediated phosphorylation of ERK (Cisbio HTRF pERK), A549 cells; format: cell-based; conditions: Homo sapiens, HTRF pERK
Summary of the method: (§3)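 Phosphorylated ERK was quantified by HTRF using d2-conjugate and Cryptate antibodies added to lysates for 2 hrs at room temperature.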

[5] = tested on: KRas-mediated phosphorylation of ERK in H460 cells; assay: Inhibition of KRas-mediated phosphorylation of ERK (Cisbio HTRF pERK), H460 cells; format: cell-based; conditions: Homo sapiens, NCI-H460, HTRF pERK
Summary of the method: as §2

[6] = tested on: KRas-mediated phosphorylation of ERK in HCT116 cells; assay: Inhibition of KRas-mediated phosphorylation of ERK (Cisbio HTRF pERK), HCT116 cells; format: cell-based; conditions: Homo sapiens, HCT-116, HTRF pERK
Summary of the method: as §3

[7] = tested on: KRas-mediated phosphorylation of ERK in H358 cells; assay: Inhibition of KRas-mediated phosphorylation of ERK (Cisbio HTRF pERK), H358 cells; format: cell-based; conditions: Homo sapiens, NCI-H358, HTRF pERK
Summary of the method: as §2

KRas^G12R = biological target: T6, KRas^G12R (Homo sapiens, UniProt P01116, G12R); assay: KRas binding assay (TR-FRET tracer displacement), KRas G12R
T6 construct: Biotinylated KRas (corresponding to amino acids 1-169, produced at Accelegan Inc.); biotin (biotinylated); purchased Accelegan Inc

[8] = tested on: KRas-mediated phosphorylation of ERK in PSN1 cells; assay: Inhibition of KRas-mediated phosphorylation of ERK (Cisbio HTRF pERK), PSN1 cells; format: cell-based; conditions: Homo sapiens
Summary of the method: as §1

T1 sequence (P01116 1-169 isoform P01116-2): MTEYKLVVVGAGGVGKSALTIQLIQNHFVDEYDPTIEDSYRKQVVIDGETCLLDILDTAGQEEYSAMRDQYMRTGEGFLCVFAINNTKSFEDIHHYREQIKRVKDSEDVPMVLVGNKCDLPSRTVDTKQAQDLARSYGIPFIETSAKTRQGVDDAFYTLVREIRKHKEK
T3 sequence (P01116 1-169 isoform P01116-2 G12D): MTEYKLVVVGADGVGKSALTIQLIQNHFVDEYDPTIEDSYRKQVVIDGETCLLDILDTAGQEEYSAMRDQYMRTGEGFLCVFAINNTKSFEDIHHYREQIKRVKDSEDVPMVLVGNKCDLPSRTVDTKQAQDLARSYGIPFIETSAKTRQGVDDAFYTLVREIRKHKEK
T5 sequence (P01116 1-169 isoform P01116-2 G12V): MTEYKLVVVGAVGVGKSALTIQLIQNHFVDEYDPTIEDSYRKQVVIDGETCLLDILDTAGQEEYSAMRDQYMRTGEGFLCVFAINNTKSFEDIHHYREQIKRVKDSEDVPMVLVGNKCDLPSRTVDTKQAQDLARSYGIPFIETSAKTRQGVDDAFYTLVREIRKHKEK
T4 sequence (P01116 1-169 isoform P01116-2 G12S): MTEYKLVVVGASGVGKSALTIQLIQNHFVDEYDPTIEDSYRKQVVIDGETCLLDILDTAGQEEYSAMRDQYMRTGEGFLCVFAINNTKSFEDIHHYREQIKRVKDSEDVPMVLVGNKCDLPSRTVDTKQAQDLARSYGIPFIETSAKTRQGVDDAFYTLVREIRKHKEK
T2 sequence (P01116 1-169 isoform P01116-2 G12C): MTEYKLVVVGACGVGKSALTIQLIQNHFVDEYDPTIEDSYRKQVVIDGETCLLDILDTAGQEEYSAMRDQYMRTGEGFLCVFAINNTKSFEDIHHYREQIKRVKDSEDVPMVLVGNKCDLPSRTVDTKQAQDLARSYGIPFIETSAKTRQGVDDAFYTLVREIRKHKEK
T6 sequence (P01116 1-169 isoform P01116-2 G12R): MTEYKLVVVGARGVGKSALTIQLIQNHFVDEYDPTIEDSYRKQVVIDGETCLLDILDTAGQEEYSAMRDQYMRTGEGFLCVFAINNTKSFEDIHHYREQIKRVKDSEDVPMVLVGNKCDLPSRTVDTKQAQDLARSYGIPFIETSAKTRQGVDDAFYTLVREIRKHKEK

Row | SMILES | IC50 (KRas^WT) | IC50 (KRas^G12C) | IC50 (KRas^G12D) | IC50 (KRas^G12S) | IC50 (KRas^G12V) | IC50 [1] | IC50 [2] | IC50 [3] | IC50 [4] | IC50 [5] | IC50 [6] | IC50 [7] | IC50 (KRas^G12R) | IC50 [8]
1 | C=C1CN2CC(=C)CC2(COc2nc(N3C[C@@H]4C[C@H](C3)[C@H](O)C4)c3cnc(-c4cc(O)cc5ccc(F)c(CC)c45)c(F)c3n2)C1 [Example 796, (1R,5R,6R)-3-(2-((2,6-dimethylenetetrahydro-1H-pyrrolizin-7a(5H)-yl)methoxy)-7-(8-ethyl-7-fluoro-3-hydroxynaphthalen-1-yl)-8-fluoropyrido[4,3-d]pyrimidin-4-yl)-3-azabicyclo[3.2.1]octan-6-ol] | < 2 nM | < 2 nM | < 2 nM | < 2 nM | < 2 nM | 2 nM | 21 nM | 12 nM | 7 nM | 8 nM | 37 nM | 5 nM |  | 
2 | CCc1c(F)ccc2cc(O)cc(-c3ncc4c(N5CC[C@H]6C(=O)O[C@H]6C5)nc(OC[C@@]56CCCN5C[C@H](F)C6)nc4c3F)c12 [Example 802, 3-(7-(8-ethyl-7-fluoro-3-hydroxynaphthalen-1-yl)-8-fluoro-2-(((2R,7aS)-2-fluorotetrahydro-1H-pyrrolizin-7a(5H)-yl)methoxy)pyrido[4,3-d]pyrimidin-4-yl)-8-oxa-3-azabicyclo[4.2.0]octan-7-one] |  | 2 nM | 189 nM | 2 nM | 116 nM | > 10000 nM | > 10000 nM | > 10000 nM | 12 nM | > 10000 nM | > 10000 nM | 32 nM | 35 nM | > 10000 nM
3 | CCc1c(F)ccc2cc(O)cc(-c3nc4c5c(nc(OC[C@@]67CCCN6C[C@H](F)C7)nc5c3F)NCCO4)c12 [Example 803, 5-ethyl-6-fluoro-4-(4-fluoro-2-(((2R,7aS)-2-fluorotetrahydro-1H-pyrrolizin-7a(5H)-yl)methoxy)-9,10-dihydro-8H-7-oxa-1,3,6,10-tetraazacyclohepta[de]naphthalen-5-yl)naphthalen-2-ol] | 20 nM | 11 nM | 14 nM | 14 nM | 9 nM |  |  |  |  |  |  |  |  | 
4 | CCc1c(F)ccc2cc(O)cc(-c3ncc4c(N5CC6CCC(C5)S6)nc(OC[C@@]56CCCN5C[C@H](F)C6)nc4c3F)c12 [Example 922, 4-(4-(8-thia-3-azabicyclo[3.2.1]octan-3-yl)-8-fluoro-2-(((2R,7aS)-2-fluorotetrahydro-1H-pyrrolizin-7a(5H)-yl)methoxy)pyrido[4,3-d]pyrimidin-7-yl)-5-ethyl-6-fluoronaphthalen-2-ol] | 21 nM | 18 nM | 74 nM | 9 nM | 13 nM |  | 1380 nM | 576 nM |  |  |  |  |  | 
5 | CCc1c(F)ccc2cc(O)cc(-c3ncc4c(N5C[C@@H]6C[C@H](C5)[C@H](O)C6)nc(OCC56CCCN5C/C(=C/F)C6)nc4c3F)c12 (stereo partly drawn) [Example 930, (1R,5R,6R)-3-(7-(8-ethyl-7-fluoro-3-hydroxynaphthalen-1-yl)-8-fluoro-2-(((E)-2-(fluoromethylene)tetrahydro-1H-pyrrolizin-7a(5H)-yl)methoxy)pyrido[4,3-d]pyrimidin-4-yl)-3-azabicyclo[3.2.1]octan-6-ol] | < 2 nM | < 2 nM | < 2 nM | < 2 nM | < 2 nM |  | 13 nM | 4 nM | 3 nM |  |  | 1 nM |  | 
6 | C[C@@H]1C[C@@H]1c1c(Cl)cc(O)cc1-c1ncc2c(N3CCC[C@]4(C3)NC(=O)NC4=O)nc(OC[C@@]34CCCN3C[C@H](F)C4)nc2c1F [Example 932, (R)-7-(7-(3-chloro-5-hydroxy-2-((1S,2R)-2-methylcyclopropyl)phenyl)-8-fluoro-2-(((2R,7aS)-2-fluorotetrahydro-1H-pyrrolizin-7a(5H)-yl)methoxy)pyrido[4,3-d]pyrimidin-4-yl)-1,3,7-triazaspiro[4.5]decane-2,4-dione] | < 2 nM | < 2 nM | < 2 nM | < 2 nM | < 2 nM | 3 nM | 139 nM | 225 nM | 69 nM | 33 nM | 130 nM | 23 nM |  | 
7 | C[C@@H]1C[C@@H]1c1c(Cl)cc(O)cc1-c1ncc2c(N3CCCn4nc(C(=O)N(C)C)cc4C3)nc(OC[C@@]34CCCN3C[C@H](F)C4)nc2c1F [Example 933, 5-(7-(3-chloro-5-hydroxy-2-((1S,2R)-2-methylcyclopropyl)phenyl)-8-fluoro-2-(((2R,7aS)-2-fluorotetrahydro-1H-pyrrolizin-7a(5H)-yl)methoxy)pyrido[4,3-d]pyrimidin-4-yl)-N,N-dimethyl-5,6,7,8-tetrahydro-4H-pyrazolo[1,5-a][1,4]diazepine-2-carboxamide] | 4 nM | < 2 nM | < 2 nM | < 2 nM | < 2 nM | 11 nM | 29 nM | 70 nM | 202 nM | 287 nM | 526 nM | 18 nM |  | 
8 | C=C1CN2CCCC2(COc2nc(N3CCCC4(CC(O)C4)C3)c3cnc(-c4cc(O)cc5ccc(F)c(CC)c45)c(F)c3n2)C1 (centres unmarked) [Example 934, 6-(7-(8-ethyl-7-fluoro-3-hydroxynaphthalen-1-yl)-8-fluoro-2-((2-methylenetetrahydro-1H-pyrrolizin-7a(5H)-yl)methoxy)pyrido[4,3-d]pyrimidin-4-yl)-6-azaspiro[3.5]nonan-2-ol] | < 2 nM | < 2 nM | < 2 nM | < 2 nM | < 2 nM | 0.2 nM | 11 nM | 6 nM | 7 nM |  |  | 1 nM |  | 
9 | C#Cc1c(F)ccc2cc(O)cc(-c3ncc4c(N5CCCC6(CCO6)C5)nc(OC[C@@]56CCCN5C[C@H](F)C6)nc4c3F)c12 (stereo partly drawn) [Example 935, 5-ethynyl-6-fluoro-4-(8-fluoro-2-(((2R,7aS)-2-fluorotetrahydro-1H-pyrrolizin-7a(5H)-yl)methoxy)-4-(1-oxa-6-azaspiro[3.5]nonan-6-yl)pyrido[4,3-d]pyrimidin-7-yl)naphthalen-2-ol] | 7 nM | 7 nM | 4 nM | 5 nM | 4 nM |  | 70 nM | 73 nM |  |  |  |  |  | 
10 | C=C1CN2CCCC2(COc2nc(N3CCCC4(CC(=O)N4)C3)c3cnc(-c4cc(O)cc5ccc(F)c(CC)c45)c(F)c3n2)C1 (centres unmarked) [Example 943, 6-(7-(8-ethyl-7-fluoro-3-hydroxynaphthalen-1-yl)-8-fluoro-2-((2-methylenetetrahydro-1H-pyrrolizin-7a(5H)-yl)methoxy)pyrido[4,3-d]pyrimidin-4-yl)-1,6-diazaspiro[3.5]nonan-2-one] | < 2 nM | < 2 nM | < 2 nM | < 2 nM | < 2 nM | 0.4 nM | 32 nM | 50 nM | 27 nM |  |  | 4 nM |  | 
11 | C=C1CN2CCCC2(COc2nc(N3CC4C(=O)NC(=O)C4C3)c3cnc(-c4cc(O)cc5ccc(F)c(CC)c45)c(F)c3n2)C1 (centres unmarked) [Example 947, 5-(7-(8-ethyl-7-fluoro-3-hydroxynaphthalen-1-yl)-8-fluoro-2-((2-methylenetetrahydro-1H-pyrrolizin-7a(5H)-yl)methoxy)pyrido[4,3-d]pyrimidin-4-yl)tetrahydropyrrolo[3,4-c]pyrrole-1,3(2H,3aH)-dione] | < 2 nM | < 2 nM | < 2 nM | < 2 nM | < 2 nM | 4 nM | 157 nM | 352 nM | 119 nM |  |  | 29 nM |  | 
